Read-outs that look alike come from different tables or passages of the source.
Key:
[1] = design: method as in PMID 26101175; conditions: Chinese subjects, Group 2, n=9, 25 mg empagliflozin; cited from earlier work
[2] = design: method as in PMID 23859534; conditions: glucuronidation is the major metabolic pathway; cited from earlier work
[3] = Single oral dose pharmacokinetic study of EG in healthy Egyptian volunteers (LC-MS/MS of plasma); format: in vivo, human; conditions: one JARDIANCE tablet 25 mg EG; for Cmax, Mean ± S.D. (% C.V.): n=6, fasting, single oral dose
Procedure: Each EG calibrator and quality control (QC) plasma sample (980 µL) was spiked with 20 µL containing the appropriate amount of EG in acetonitrile prepared with dilution of EG working solution. All samples including the volunteers’ plasma samples (1 mL plasma) were spiked with 100 µL of IS that contained 100 ng of DG followed by vortexing for 20 sec. Five milliliters of TBME were added, vortexed for 1 min, and centrifuged for 30 min at 6000 rpm. Four milliliters of the organic layer were vacuum evaporated until dryness at 60 °C. Three hundred microliters of acetonitrile were added to reconstitute the resulting residue and vortexed for 3 min. Ten microliters of the reconstituted solution were injected into the LC-MS/MS system.
The pharmacokinetic parameters of EG were studied in healthy human subjects according to the ethical regulations of World Medical Association Declaration of Helsinki (October 1996) and the International Conference of Harmonization Tripartite Guideline for Good Clinical Practice. Written informed consent was provided by each volunteer before enrollment. Approval of the study by the ethical committee was mandatory according to the Egyptian ministry of Health and The British University in Egypt research ethics guidelines. The experimental protocols were approved by the ethics committee of the Faculty of Pharmacy, The British University in Egypt. The clinical trial protocol was registered in a publically accessible primary register that participates in the WHO International Clinical Trial Registry Platform (ClinicalTrials.gov, 16/02/2017, ID: NCT03059056). Good health of the human subjects was confirmed with a complete medical history and physical examination. Fasting of all volunteers eliminated the possible interaction from high fat meals. The evaluation of safety of the study was based on monitoring of blood glucose level, vital signs, pulse rate, monitoring of adverse events, and physical examination. Samples from 6 healthy, adult, male, Egyptian volunteers (age: 22–33 years, average weight: 77.8 kg, average body mass index (BMI): 29.2) were collected at 0, 0.5, 1, 1.5, 2, 3, 4, 8 and 12 hrs, transferred to heparinized centrifuge tubes and analyzed with the proposed method after single oral dose administration of one JARDIANCE tablet nominally containing 25 mg EG. Blood samples (3 mL of each sample) were centrifuged at 3000 rpm for 5 min, 1 mL of the plasma was separated and spiked with 100 µL (equivalent to 100 ng) of IS working solution, and then the procedure discussed under (Sample preparation) was applied. The main pharmacokinetic parameters of the study, Cmax, Tmax, t1/2, elimination rate constant, AUC0-t and AUC0-inf, were estimated using validated Excel software. Blood glucose level was determined for all volunteers at 0 and 1.5 hrs to monitor any hypoglycemic effect. The study was conducted as per FDA guidelines.

[4] = white German subjects, cited from earlier work
[5] = Monitoring of blood glucose level of volunteers (hypoglycemic effect); format: in vivo, human; conditions: healthy Egyptian volunteers, 25 mg EG single oral dose, determined at 0 and 1.5 hrs
Excerpt: The pharmacokinetic parameters of EG were studied in healthy human subjects according to the ethical regulations of World Medical Association Declaration of Helsinki (October 1996) and the International Conference of Harmonization Tripartite Guideline for Good Clinical Practice. Written informed consent was provided by each volunteer before enrollment. Approval of the study by the ethical committee was mandatory according to the Egyptian ministry of Health and The British University in Egypt research ethics guidelines. The experimental protocols were approved by the ethics committee of the Faculty of Pharmacy, The British University in Egypt. The clinical trial protocol was registered in a publically accessible primary register that participates in the WHO International Clinical Trial Registry Platform (ClinicalTrials.gov, 16/02/2017, ID: NCT03059056). […] Samples from 6 healthy, adult, male, Egyptian volunteers (age: 22–33 years, average weight: 77.8 kg, average body mass index (BMI): 29.2) were collected at 0, 0.5, 1, 1.5, 2, 3, 4, 8 and 12 hrs, transferred to heparinized centrifuge tubes and analyzed with the proposed method after single oral dose administration of one JARDIANCE tablet nominally containing 25 mg EG. […] Blood glucose level was determined for all volunteers at 0 and 1.5 hrs to monitor any hypoglycemic effect. […]

[6] = design: method as in PMID 25199997; conditions: Japanese subjects, Group 1, n=8, 25 mg empagliflozin; cited from earlier work

k el ([3]; male, human, plasma, n=6, single oral dose, read-out: Elimination rate constant, Mean ± S.D. (% C.V.) (converted)): 2.78e-05 s⁻¹
half-life ([3]; male, human, plasma, n=6, single oral dose, read-out: t 1/2, Mean ± S.D. (% C.V.) (converted)): 6.1 ± 1.2 h
Cmax, Mean ± S.D. (% C.V.) ([3]; plasma): 576 ± 86 (14.93) nMol/L
Cmax, Mean ± S.D. (% C.V.) ([3]; plasma, listed as empagliflozin): 576 nmol/L
AUC0-inf, Mean ± S.D. (% C.V.) ([3]; n=6, single oral dose): 4103 ± 427 (10.41) nMol.h/L
AUC0−t (12), Mean ± S.D. (% C.V.) ([3]; n=6, single oral dose, 0-12 h): 2806 ± 234 (8.34) nMol.h/L
AUC0-inf, Mean ± S.D. (% C.V.) ([3]; n=6, single oral dose, listed as empagliflozin): 4103 nmol·h/L
blood glucose level of all volunteers [5]: in the normal range
SMILES: OC[C@H]1O[C@@H](c2ccc(Cl)c(Cc3ccc(O[C@H]4CCOC4)cc3)c2)[C@H](O)[C@@H](O)[C@@H]1O [Empagliflozin]
AUC0-inf, Mean [1]: 7.45 µM·h
Cmax, Mean [1]: 1130 nM
metabolites detected in human plasma [2]: no major metabolites
AUC0-inf, Mean ([4]; Group 1, n=6, 25 mg EG): 3.83 µM·h
Cmax, Mean ([4]; Group 1, n=6, 25 mg EG): 505 nM
AUC0-inf, Mean ([4]; Group 2, n=18, 25 mg EG): 4.77 µM·h
Cmax, Mean ([4]; Group 2, n=18, 25 mg EG): 610 nM
AUC0-inf, Mean ([4]; Group 3, n=9, 25 mg EG): 4.31 µM·h
Cmax, Mean ([4]; Group 3, n=9, 25 mg EG): 606 nM
AUC0-inf, Mean ([4]; Group 4, n=9, 25 mg EG): 4.99 µM·h
Cmax, Mean ([4]; Group 4, n=9, 25 mg EG): 630 nM
AUC0-inf, Mean [6]: 7.56 µM·h
Cmax, Mean [6]: 1070 nM
